We go through twelve molecules from US5008386A, “Methylated cyclodextrin type compounds and process for preparing same” (Chinoin Gyogyszer es Vegyeszeti Termekek Gyara R.T., priority 1987, dated 1991).

Data set [1] is described as follows: Solubility-increasing effect (UV spectrophotometry, 22 °C, 18 hours stirring). The procedure:
Therefore comparative examinations concerning the solubility-increasing effect were performed with model guest-molecules containing a basic group. (The measurements were carried out by UV spectrophotometry at 22° C. after stirring for 18 hours).

The next data set is described as follows: in vitro. In kind it is cell-based, human. The following applies: human, erythrocytes, pH 7.4. The procedure: (§1) Solutions containing the test substances in 10 mM concentration were prepared in a 10 mM phosphate buffer at pH 7.4. The commercially available α-, β- and γ-CD products manufactured by Chinoin Chemical and Pharmaceutical Works Ltd. (Budapest, Hungary) were used.
(§2) DIMEB and TRIMEB, i.e. heptakis(2,6-di-O-methyl)-β-CD and heptakis(2,3,6-tri-O-methyl)-β-CD, respectively were prepared by the partial or total methylation of β-CD as described previously.
(§3) Fresh human blood (taken from healthy donors being under no medicinal treatment) treated by citrate as anticoagulant was centrifuged at 2000-3000× g for 10 minutes, then the supernatant was decanted, the eryhtrocytes were suspended in 5 ml of 10 mM isotonic phosphate buffer each and again centrifuged at 2000-3000× g for 10 minutes. After repeating twice this operation, the resulting erythrocytes were suspended in isotonic phosphate buffer to obtain a haematocrite volume of about 10%. This suspension (which could be stored in a refrigerator at about 4° C. for at most 48 hours) was used in further experiments.
(§4) 0.4 ml of erythrocyte suspension was added to a test solution of 4 ml total volume containing the tested CD-s and derivatives in various concentrations, then the mixture was incubated at 37° C. for 30 minutes. The mixture of 4 ml isotonic phosphate buffer and 0.4 ml erythrocyte suspension was used as blank trial (which was treated similarly to the samples).
(§5) After 30 minutes, the suspensions being present in the centrifuge tubes were centrifuged at 250-500× g for 10 minutes. (It was observed that no transparent supernatant, useful for spectrophotometric determination was obtained when the centrifuging was carried out for a shorter time.) After 10 minutes, the supernatants were drained off and their extinction was photometrically determined at 543 nm against a blank solution. In order to give the percentage of haemolysis, the extinction measured after a complete haemolysis had to be determined. This value was obtained in such a way that 0.4 ml of erythrocyte suspension was added to 4 ml of distilled water, then incubation and centrifuging were carried out in the same manner as described for the samples. The extinction of the solution thus obtained gave the 100% value of the haemolysis; when relating the measured extinctions of the samples to the 100% value, the extent of the haemolysis was obtained as a relative percentage.

Data set [2] has as its system human erythrocytes. Description: in vitro. In kind it is cell-based. The procedure: as §1, §2, §3, §4, §5
Data set [3] concerns human erythrocytes. The following applies: cited from earlier work.
The mark [4] stands for this setting: 2.5% SUMEB vs 2.5% DIMEB solution, * UV maximum shifted (Sensit base).
[5] abbreviates: human, erythrocytes, 0.5 h, pH 7.4.
[6] abbreviates: 37° C., pH 7,4, 10 mmoles isotonic phosphate buffer.

Converted amounts (≈) assume the structure as drawn. “And” between values parts separate entries of the source, which are not always exact repeats. Identical values can stand only once. Like-named read-outs stand apart in the source and are kept apart here.

`CC(Cc1ccccc1)NCCC(c1ccccc1)c1ccccc1` (racemic) [± Prenylamine base, Prenylamine]: in data set [1] (setting [4]), the “SUMEB / DIMEB (ratio of solubilities)” value amounted to 3.75. For the same molecule, the solubility at 18 h in data set [1] (2.5% dimeb solution) was 2000 µg/mL (≈ 6.07 mM); in data set [1] (2.5% sumeb solution), 7500 µg/mL (≈ 22.8 mM); in data set [1] (water), 310 µg/mL (≈ 0.941 mM).

Turning to `CC(NCCC(c1ccccc1)c1ccccc1)c1ccccc1` (racemic) [± Sensit base], the “SUMEB / DIMEB (ratio of solubilities)” value in data set [1] stood at 1.53. Further, the solubility at 18 h came out at 5500 µg/mL (≈ 17.4 mM) in data set [1] (2.5% dimeb solution), 8500 µg/mL (≈ 26.9 mM) in data set [1] (2.5% sumeb solution) and 2100 µg/mL (≈ 6.66 mM) in data set [1] (water).

For the molecule `C[C@@H]([C@H](O)c1ccccc1)N(C)C` [- N-Methylephedrine base, N-Methylephedrine], the “SUMEB / DIMEB (ratio of solubilities)” value in data set [1] (setting [4]) was determined as 1.2. The solubility at 18 h was determined as 18500 µg/mL (≈ 103 mM) in data set [1] (2.5% dimeb solution) and 22000 µg/mL (≈ 123 mM) in data set [1] (2.5% sumeb solution).

Regarding `CC(C)CCC[C@@H](C)[C@H]1CC[C@H]2[C@@H]3CC=C4C[C@@H](O)CC[C@]4(C)[C@H]3CC[C@]12C` [Cholesterol], the “SUMEB / DIMEB (ratio of solubilities)” value in data set [1] (setting [4]) turned out to be 0.37. Moreover, the solubility at 18 h in data set [1] (2.5% dimeb solution) came out at 1710 µg/mL (≈ 4.42 mM); in data set [1] (2.5% sumeb solution), 640 µg/mL (≈ 1.66 mM); in data set [1] (water) it was 100 µg/mL (≈ 0.259 mM).

As to `COC[C@H]1O[C@@H]2O[C@H]3[C@H](O)[C@@H](OC)[C@@H](O[C@H]4[C@H](O)[C@@H](OC)[C@@H](O[C@H]5[C@H](O)[C@@H](OC)[C@@H](O[C@H]6[C@H](O)[C@@H](OC)[C@@H](O[C@H]7[C@H](O)[C@@H](OC)[C@@H](O[C@H]8[C@H](O)[C@@H](OC)[C@@H](O[C@H]1[C@H](O)[C@H]2OC)O[C@@H]8COC)O[C@@H]7COC)O[C@@H]6COC)O[C@@H]5COC)O[C@@H]4COC)O[C@@H]3COC` [DIMEB, heptakis(2,6-di-O-methyl)-β-CD], in “in vitro”, the HC50 at 0.5 h is 1 mM and 1440 µg/mL; the MNTC at 0.5 h was 220 µM and 300 µg/mL. Further, in the data set with human erythrocytes [2], the “concentration giving the same percentage of haemolysis, relative to β-CD” value is “one sixth”.

Turning to `c1ccc(Nc2ccccc2)cc1` [Diphenylamine], the “SUMEB / DIMEB (ratio of solubilities)” value in data set [1] (setting [4]) came out at 0.72. Besides, the solubility at 18 h in data set [1] (2.5% dimeb solution) amounted to 520 µg/mL (≈ 3.07 mM); in data set [1] (2.5% sumeb solution) it was 410 µg/mL (≈ 2.42 mM).

As to `COC[C@H]1O[C@@H]2O[C@H]3[C@H](OC)[C@@H](OC)[C@@H](O[C@H]4[C@H](OC)[C@@H](OC)[C@@H](O[C@H]5[C@H](OC)[C@@H](OC)[C@@H](O[C@H]6[C@H](OC)[C@@H](OC)[C@@H](O[C@H]7[C@H](OC)[C@@H](OC)[C@@H](O[C@H]8[C@H](OC)[C@@H](OC)[C@@H](O[C@H]1[C@H](OC)[C@H]2OC)O[C@@H]8COC)O[C@@H]7COC)O[C@@H]6COC)O[C@@H]5COC)O[C@@H]4COC)O[C@@H]3COC` [TRIMEB, heptakis(2,3,6-tri-O-methyl)-β-CD], in the data set “in vitro”, the HC50 at 0.5 h was 4 mM and 5700 µg/mL; the MNTC at 0.5 h is 1.4 mM and 2000 µg/mL. In addition, the “haemolytic effect, in words” value with human erythrocytes [2] is given as “also higher than that of the mother compound”.

As to `OC[C@H]1O[C@@H]2O[C@H]3[C@H](O)[C@@H](O)[C@@H](O[C@H]4[C@H](O)[C@@H](O)[C@@H](O[C@H]5[C@H](O)[C@@H](O)[C@@H](O[C@H]6[C@H](O)[C@@H](O)[C@@H](O[C@H]7[C@H](O)[C@@H](O)[C@@H](O[C@H]1[C@H](O)[C@H]2O)O[C@@H]7CO)O[C@@H]6CO)O[C@@H]5CO)O[C@@H]4CO)O[C@@H]3CO` [α-CD], in “in vitro”, the HC50 at 0.5 h was 12 mM and 11700 µg/mL; the MNTC at 0.5 h was 6 mM and 5800 µg/mL. The “Haemolysis values, measured” value in the data set with human erythrocytes [2] (setting [5]) was found to be 4.97%. In addition, the “low concentration protecting human erythrocytes against heat-induced or osmotic haemolysis” value with human erythrocytes [3] is given as 5 mmol. In addition, the “concentration at (and above) which haemolysis is induced” value in the data set on human erythrocytes [3] (pH 7) is reported as 6 mmol.

Take `OC[C@H]1O[C@@H]2O[C@H]3[C@H](O)[C@@H](O)[C@@H](O[C@H]4[C@H](O)[C@@H](O)[C@@H](O[C@H]5[C@H](O)[C@@H](O)[C@@H](O[C@H]6[C@H](O)[C@@H](O)[C@@H](O[C@H]7[C@H](O)[C@@H](O)[C@@H](O[C@H]8[C@H](O)[C@@H](O)[C@@H](O[C@H]1[C@H](O)[C@H]2O)O[C@@H]8CO)O[C@@H]7CO)O[C@@H]6CO)O[C@@H]5CO)O[C@@H]4CO)O[C@@H]3CO` [β-CD, β-cyclodextrin]: in “in vitro”, the HC50 at 0.5 h is 6 mM and 6800 µg/mL; the MNTC at 0.5 h was 1.6 mM and 1800 µg/mL. For the same molecule, in the data set on human erythrocytes [3] (setting [6]), the “concentration at (and above) which haemolysis is induced” value is on record as 3 mmol.

Take `OC[C@H]1O[C@@H]2O[C@H]3[C@H](O)[C@@H](O)[C@@H](O[C@H]4[C@H](O)[C@@H](O)[C@@H](O[C@H]5[C@H](O)[C@@H](O)[C@@H](O[C@H]6[C@H](O)[C@@H](O)[C@@H](O[C@H]7[C@H](O)[C@@H](O)[C@@H](O[C@H]8[C@H](O)[C@@H](O)[C@@H](O[C@H]9[C@H](O)[C@@H](O)[C@@H](O[C@H]1[C@H](O)[C@H]2O)O[C@@H]9CO)O[C@@H]8CO)O[C@@H]7CO)O[C@@H]6CO)O[C@@H]5CO)O[C@@H]4CO)O[C@@H]3CO` [γ-CD]: in “in vitro”, the HC50 at 0.5 h was 24 mM and 32000 µg/mL; the MNTC at 0.5 h was ≤ 9 mM and ≤ 11000 µg/mL. Also, the “concentration at (and above) which haemolysis is induced” value in the data set with human erythrocytes [3] (setting [6]) is on record as 16 mmol. The “low concentration protecting human erythrocytes against heat-induced or osmotic haemolysis” value with human erythrocytes [3] was 10 mmol.

For “trideca-O-methyl-monosuccinyl-β-cyclodextrin [SUMEB]”, the “haemolytic effect, in words” value in the data set with human erythrocytes [2] is listed as “significantly lower in comparison to the haemolytic effect of the mother compound”. Also, in the data set on human erythrocytes [2] (setting [5]), the “concentration at which no haemolytic effect was observed” value came out at 300 µg/mL and the “concentration with a haemolysis value of 50%” value is 6500 µg/mL.

Turning to “trideca-O-methyl-monosuccinyl-β-cyclodextrin methyl ester [Succinyl-DIMEB methyl ester]”, the “haemolytic effect, in words” value with human erythrocytes [2] is “not significantly different from the haemolytic effect of the trideca-O-methyl-monosuccinyl-β-CD”.

By solubility is commonly meant how much of the substance goes into solution per volume. Higher therefore signals a readily soluble substance. What is called HC50 is the concentration giving 50% haemolysis. Low readings indicate more damage to red cells, high ones less damage to red cells.
